According to patent US7371766B2, “Curcumin analogs with anti-tumor and anti-angiogenic properties” (Emory University, priority 1999, dated 2008):

Legend:
Test in all cases: cells
K-562 = conditions: Homo sapiens, K562, 48 h
MOLT-4 = conditions: Homo sapiens, MOLT-4, 48 h
RPMI-8226 = conditions: Homo sapiens, RPMI-8226, 48 h
HOP-62 = conditions: Homo sapiens, HOP-62, 48 h
NCI-H460 = conditions: Homo sapiens, NCI-H460, 48 h
HCT-15 = conditions: Homo sapiens, HCT-15, 48 h
HT29 = conditions: Homo sapiens, HT-29, 48 h
SF-268 = conditions: Homo sapiens, SF-268, 48 h
SF-295 = conditions: Homo sapiens, SF-295, 48 h
LOX IMVI = conditions: Homo sapiens, 48 h
MALME-3M = conditions: Homo sapiens, 48 h
SK-MEL-28 = conditions: Homo sapiens, SK-MEL-28, 48 h
UACC-62 = conditions: Homo sapiens, UACC-62, 48 h
IGROV1 = conditions: Homo sapiens, IGROV-1, 48 h
OVCAR-3 = conditions: Homo sapiens, OVCAR-3, 48 h
OVCAR-4 = conditions: Homo sapiens, OVCAR-4, 48 h
OVCAR-5 = conditions: Homo sapiens, OVCAR-5, 48 h
OVCAR-8 = conditions: Homo sapiens, OVCAR-8, 48 h
A498 = conditions: Homo sapiens, A498, 48 h
ACHN = conditions: Homo sapiens, 48 h
CAKI-1 = conditions: Homo sapiens, CAKI-1, 48 h
RXF 393 = conditions: Homo sapiens, RXF 393, 48 h
SN12C = conditions: Homo sapiens, 48 h
UO-31 = conditions: Homo sapiens, UO-31, 48 h
PC-3 = conditions: Homo sapiens, PC-3, 48 h
DU-145 = conditions: Homo sapiens, DU-145, 48 h
NCI/ADR-RES = conditions: Homo sapiens, 48 h
MDA-N = conditions: Homo sapiens, 48 h
BT-549 = conditions: Homo sapiens, BT-549, 48 h
[1] = read-out: Median Growth Inhibitory Concentration (GI50)
[2] = read-out: Median Lethal Concentration (LC50)

OC(CCc1ccc(F)cc1F)CCc1ccc(F)cc1F [EF19, 1,5-Bis(2,4-difluorophenyl)-pentan-3-ol] was tested, and the GI50 (K-562; [1]) was 19 µM, the CC50 (K-562; [2]) was 90.1 µM and the GI50 (MOLT-4; [1]) was 2600 nM. For the same compound, the CC50 (MOLT-4; [2]) was 75.6 µM, the GI50 (RPMI-8226; [1]) was 21.7 µM and the CC50 (RPMI-8226; [2]) was > 100 µM. For the same compound, the GI50 (HOP-62; [1]) was 18 µM, the CC50 (HOP-62; [2]) was 58.7 µM and the GI50 (NCI-H460; [1]) was 17.9 µM. For the same compound, the CC50 (NCI-H460; [2]) was 57.5 µM, the GI50 (HCT-15; [1]) was 24.8 µM and the CC50 (HCT-15; [2]) was > 100 µM. It also gave a GI50 (HT29; [1]) of 17.9 µM, a CC50 (HT29; [2]) of 62.6 µM and a GI50 (SF-268; [1]) of 21.5 µM. For the same compound, the CC50 (SF-268; [2]) was 85.3 µM, the GI50 (SF-295; [1]) was 18.7 µM and the CC50 (SF-295; [2]) was 69.7 µM. The GI50 (LOX IMVI; [1]) was 20 µM, the CC50 (LOX IMVI; [2]) was 74.4 µM and the GI50 (MALME-3M; [1]) was 18 µM. It also gave a CC50 (MALME-3M; [2]) of 59.6 µM, a GI50 (SK-MEL-28; [1]) of 17.1 µM and a CC50 (SK-MEL-28; [2]) of 55.6 µM. For the same compound, the GI50 (UACC-62; [1]) was 15.1 µM, the CC50 (UACC-62; [2]) was 53.2 µM and the GI50 (IGROV1; [1]) was 17.2 µM. For the same compound, the CC50 (IGROV1; [2]) was 55.6 µM, the GI50 (OVCAR-3; [1]) was 17.9 µM and the CC50 (OVCAR-3; [2]) was 59.3 µM. The GI50 (OVCAR-4; [1]) was 17.4 µM, the CC50 (OVCAR-4; [2]) was 65.1 µM and the GI50 (OVCAR-5; [1]) was 18.5 µM. It also gave a CC50 (OVCAR-5; [2]) of 61.1 µM, a GI50 (OVCAR-8; [1]) of 18 µM and a CC50 (OVCAR-8; [2]) of 67.3 µM. For the same compound, the GI50 (A498; [1]) was 16.3 µM, the CC50 (A498; [2]) was 54.7 µM and the GI50 (ACHN; [1]) was 17.8 µM. It also gave a CC50 (ACHN; [2]) of 56.3 µM, a GI50 (CAKI-1; [1]) of 21.8 µM and a CC50 (CAKI-1; [2]) of 67.8 µM. It also gave a GI50 (RXF 393; [1]) of 18.8 µM, a CC50 (RXF 393; [2]) of 58.4 µM and a GI50 (SN12C; [1]) of 17.4 µM. For the same compound, the CC50 (SN12C; [2]) was 55.9 µM, the GI50 (UO-31; [1]) was 18.2 µM and the CC50 (UO-31; [2]) was 56.6 µM. The GI50 (PC-3; [1]) was 17.5 µM, the CC50 (PC-3; [2]) was 56.7 µM and the GI50 (DU-145; [1]) was 18.1 µM. For the same compound, the CC50 (DU-145; [2]) was 56.6 µM, the GI50 (NCI/ADR-RES; [1]) was 25.3 µM and the CC50 (NCI/ADR-RES; [2]) was > 100 µM. The GI50 (MDA-N; [1]) was 16.9 µM, the CC50 (MDA-N; [2]) was 55.2 µM and the GI50 (BT-549; [1]) was 17.9 µM. The CC50 (BT-549; [2]) was 64.7 µM.
